We go through 4 compounds from US7220402B1, “Alpha-fetoprotein peptides and uses for imaging” (Ordway Research Institute, Inc., priority 2001, dated 2007).

Entries after “also recorded” stand apart in the source; their conditions may differ. Square brackets hold non-standard residues; d marks the D form. Ends that are not written are not given here. Hyp = O=C(O)[C@@H]1C[C@@H](O)CN1

Data set [1] can be described thus: Preliminary pharmacokinetic studies in mice. Type of data set: in vivo.
For data set [2], the system named is estrogen-receptor-positive T47D human breast cancer xenografts. Put plainly: Human breast cancer xenograft assay, T47D. It counts as in vivo. The following applies: E2-supplemented SCID mice; peptide 1 μg i.p. twice a day; 30-day observation.
The subject of data set [3] is MCF-7 human breast cancer xenografts. Put plainly: Human breast cancer xenograft assay, MCF-7. Type of data set: in vivo. The following applies: E2-supplemented SCID mice; peptide 1 μg i.p. twice a day, tamoxifen 50 μg i.p. once a day; 30-day observation. The protocol: FIG. 5 illustrates the anti-estrotrophic activity of hydroxyproline-substituted linear peptide against MCF-7 human breast cancer xenografts. There were five to eight replicate mice per treatment group. Estrogen was provided via a slow release pellet implanted subcutaneously. Peptide was given twice a day i.p. at a dose of 1 μg per mouse. Tumor volumes in each mouse were measured at the time of tumor implantation and at 10-day intervals thereafter during survival laparotomies.
FIGS. 9a and 9b illustrate the effect of AFP-derived peptide on growth of estrogen-receptor-positive MCF-7 and MCF-7/Tarn human breast cancer xenografts. Tumors were implanted as described in Materials and Methods. […] Tumor volumes in each mouse were measured at the time of tumor implantation, again at day 15 after tumor implantation during survival laparotomy and again at day 30 after tumor implantation during necropsy. […]
(§1) Human Breast Cancer Xenograft Assay. […] Tumor growth was monitored during survival laparotomy at 10 day intervals by measurement of the diameters of the short (d) and long axes (D) of each tumor, using a dissecting microscope equipped with an ocular micrometer. Tumor volumes were calculated using the formula (π/6) (d)^2 D, assuming the tumor shape to be an ellipsoid of revolution around its long axis (D). […] Mean tumor volume±standard error in each group was calculated for display of growth curves. […]

Data set [4] relates to E2-stimulated growth of immature mouse uterus. Put plainly: Immature mouse uterine growth assay (anti-estrotrophic activity). It counts as in vivo. The following applies: for inhibition of the uterotrophic effect of estradiol: Pep 1 μg i.p. one hour before E2 0.5 μg i.p., uteri weighed 22 h later (FIG. 13b); for optimal dose for inhibition of estrogen-stimulated growth of mouse uterus: i.p., biphasic dose-response (FIG. 1a). As to the method:
FIGS. 1a and 1b illustrate the anti-uterotrophic activity of octapeptide, SEQ ID NO: 2, […], measured in the immature mouse uterine growth assay. Peptide or vehicle control was injected i.p. into immature female Swiss mice. One hour later 0.5 μg of E2 vehicle control was injected i.p. into these mice. Twenty-two hours later, uteri were dissected and weighed. Percent inhibition of E2-stimulated growth of uterus by peptide was calculated as described in Materials and Methods. There were five to eight replicate mice per treatment group.
(§2) Immature Mouse Uterine Growth Assay.
Differences between groups were evaluated, employing the non-parametric Wilcoxon Sum of Ranks test (one-sided). In all cases, growth inhibitions that were greater than 25% were significant at p≦0.05.

Data set [5] concerns tamoxifen-stimulated growth of immature mouse uterus. Put plainly: Inhibition of tamoxifen-stimulated growth of immature mouse uterus. Type of data set: in vivo. The conditions noted are these: Pep 1 μg i.p. one hour before Tam 1.0 μg i.p., uteri weighed 22 h later.
Excerpt: as §2

A further data set deals with T1, estrogen receptor (Oryctolagus cuniculus, UniProt G1SML6).
T1 sequence (G1SML6 1-598): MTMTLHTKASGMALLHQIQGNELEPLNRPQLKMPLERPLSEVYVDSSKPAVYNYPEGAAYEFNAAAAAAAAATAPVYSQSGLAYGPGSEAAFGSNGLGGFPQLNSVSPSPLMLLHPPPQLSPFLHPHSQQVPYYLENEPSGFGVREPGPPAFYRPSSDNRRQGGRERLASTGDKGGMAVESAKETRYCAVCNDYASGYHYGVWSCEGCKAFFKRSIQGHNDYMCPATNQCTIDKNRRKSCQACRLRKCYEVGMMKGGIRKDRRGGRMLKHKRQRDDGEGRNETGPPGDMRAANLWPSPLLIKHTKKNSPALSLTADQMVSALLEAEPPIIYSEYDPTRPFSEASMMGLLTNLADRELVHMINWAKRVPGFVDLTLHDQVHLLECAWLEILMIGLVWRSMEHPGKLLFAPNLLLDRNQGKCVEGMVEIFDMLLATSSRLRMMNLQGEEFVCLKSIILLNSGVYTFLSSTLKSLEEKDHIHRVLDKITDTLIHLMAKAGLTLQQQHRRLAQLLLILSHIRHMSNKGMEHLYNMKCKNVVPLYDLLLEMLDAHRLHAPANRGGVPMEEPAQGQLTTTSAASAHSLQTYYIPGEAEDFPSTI
Put plainly: Assessment of estrogen receptor antagonism ([3H]estradiol binding, rabbit uterine cytosol). The protocol:
(§3) Rabbit uterine cytosol was used as a source of estrogen receptor.
as §3
Assessment of Estrogen Receptor Antagonism. Commercially obtained rabbit uteri (Pel-Freez Biological, Rogers, Ark.) were used as a source of estrogen receptor. […] Total count tubes received 20 μl of [3H]estradiol and 180 μl of assay buffer. After incubation overnight at 4° C., all but the total count tubes received 300 μl of dextran-coated charcoal suspension; tubes were agitated for 15 min and then centrifuged (1,000×g) for 15 min. Supernatants were decanted into counting vials, scintillant was added, and protein-bound tritium was determined by liquid scintillation counting.

The test system of data set [6] is MCF-7 subline made resistant to tamoxifen in culture (MCF-7/Tam xenografts). Put plainly: Human breast cancer xenograft assay, tamoxifen-resistant MCF-7 subline. Type of data set: in vivo. The conditions noted are these: E2-supplemented SCID mice; peptide 1 μg i.p. twice a day, tamoxifen 50 μg i.p. once a day; day 30. As to the method:
FIGS. 9a and 9b illustrate the effect of AFP-derived peptide on growth of estrogen-receptor-positive MCF-7 and MCF-7/Tarn human breast cancer xenografts. Tumors were implanted as described in Materials and Methods. Estrogen (●) was provided via a slow-release pellet of estradiol (E2) implanted s.c. Peptide (▴) was given twice a day i.p. at a dose of 1 μg per injection. […] Tumor volumes in each mouse were measured at the time of tumor implantation, again at day 15 after tumor implantation during survival laparotomy and again at day 30 after tumor implantation during necropsy. There was a minimum of 5 mice per group.
Cell Lines. T47D and MDA-231 human breast cancer cell lines were purchased from the American Type Culture Collection (Manassas, Va.). […]
as §1
(In general: A xenograft is tissue or cells of one species grown in another, often human tumour cells in immunodeficient mice.)

The test system of data set [7] is estrogen-receptor-negative MDA-MB-231 human breast cancer xenografts. Briefly: Human breast cancer xenograft assay, MDA-MB-231. Type of data set: in vivo. The conditions noted are these: SCID mice, peptide 1 μg i.p. twice a day, tamoxifen 50 μg i.p. once a day, 30-day observation.
The next data set concerns immature mouse uterus. Briefly: Uterotrophic effect of test agent alone on immature mouse uterus. The following applies: agent alone i.p.; peptide up to 10 μg/mouse.
The test system of data set [8] is MCF-7 human breast cancer xenografts. The following applies: Bennett et al. 1998; cited from earlier work.

Take “EMTOVNOG (EMT[Hyp]VN[Hyp]G; listed as Homo sapiens) [SEQ ID NO: 4]”: the biological half-life entry in data set [1] is recorded as “two to three”. Moreover, the “effect on growth (tumor volume vs E2 alone) of T47D xenografts” value in data set [2] is “completely prevented tumor growth”. For the same compound, in data set [3], the “effect on growth (tumor volume vs E2 alone) of MCF-7 xenografts” value is “prevented growth; also recorded: no significant increase in tumor volume”. The figures for the “inhibition of the uterotrophic effect of estradiol” value in data set [4] (listed as Pep) and in data set [4] (listed as peptide) were “significantly different” and “inhibited”, respectively. The “inhibition of the uterotrophic effect of tamoxifen” value in data set [5] is “significantly inhibited”; in data set [5] (listed as peptide), “inhibited”. Moreover, in the data set with estrogen receptor (cell-free system, no concentration stated), the “competition/interference with estrogen binding to the estrogen receptor” value is reported as “does not interfere”. For the same compound, the “interference with E2 binding to ER” value in the data set with estrogen receptor (peptide concentration range of 10^−10M to 10^−5M) was “no interference”. For the same compound, the “effect on growth (tumor volume vs E2 alone) of tamoxifen-resistant MCF-7 subline xenografts” value in [6] is on record as “completely prevented the xenograft growth; also recorded: completely stopped the growth”. Also, the “effect on growth of MDA-MB-231 xenografts” value is recorded as “Neither peptide nor tamoxifen were effective; also recorded: no effect on the growth” in [7] and “no differences in tumor volumes between any of the groups” in data set [7] (listed as AFP-derived peptide).

Turning to `CC/C(=C(\c1ccccc1)c1ccc(OCCN(C)C)cc1)c1ccccc1` [tamoxifen, reference compound], the “uterotrophic effect on immature mouse uterus” value in the data set on immature mouse uterus is given as “stimulate the growth of the immature mouse uterus”. Also, the “effect on growth (tumor volume vs E2 alone) of T47D xenografts” value in data set [2] is listed as “prevented growth”. Further, the “effect on growth (tumor volume vs E2 alone) of MCF-7 xenografts” value in data set [3] is given as “prevented growth; also recorded: no increase in tumor volume”. The “effect on growth (tumor volume vs E2 alone) of tamoxifen-resistant MCF-7 subline xenografts” value in data set [6] is reported as “resistant to tamoxifen in vivo; also recorded: only minimally effective”. Besides, the “effect on growth of MDA-MB-231 xenografts” value in [7] is reported as “Neither peptide nor tamoxifen were effective; also recorded: did not affect the growth”. Moreover, in data set [8], the “effect on MCF-7 breast cancer xenograft growth in an earlier study” value was “shown to stop MCF-7 breast cancer xenograft growth”.

As for “EMTPVNPG (listed as Homo sapiens) [SEQ ID NO: 6, amino acids 472–479 of alpha-fetoprotein]”, in data set [4], the “optimal dose for inhibition of estrogen-stimulated growth of mouse uterus” value is reported as ~1 μg/mouse and the “biological activity of stored inactive peptide after brief treatment with 4M urea” value is given as “regenerated”.

On to “QMTPVNPG (listed as Homo sapiens) [SEQ ID NO: 2]”, for which the “% Inhibition of E2-Stimulated Growth of Immature Mouse Uterus ± SE” value in data set [4] (Storage Time: Fresh, 1 μg peptide i.p.) turned out to be 38 ± 3%; in data set [4] (Stored over 1 year (lyophilized, −20° C.), 1 μg peptide i.p.) it was 0 ± 2%; in data set [4] (after Urea Treatment (4 M urea, room temperature, one hour) of agent II (stored over 1 year) or IV (fresh), 1 μg i.p.), 34 ± 4%. In addition, in [4] (after five weeks of storage at −20° C. lyophilized, 1 μg per mouse (FIG. 1b)), the “anti-estrotrophic activity after storage (shelf-life)” value is “diminished to insignificant levels”. For the same compound, in data set [4], the “optimal dose for inhibition of estrogen-stimulated growth of mouse uterus” value stood at 1 μg/mouse. Further, the “biological activity of higher molecular weight gel-filtration fraction of aged peptide” value in data set [4] (left side of peak (FIG. 2b), 1 μg i.p.) was “biologically inactive”. Further, the “biological activity of lower molecular weight gel-filtration fraction of aged peptide” value in data set [4] (right side of peak (FIG. 2b), 1 μg i.p.) is on record as “active”. Further, the “biological activity of aged peptide” value in data set [4] (stored in the lyophilized state at −20° C. for over one year) was “completely biologically inactive”. Besides, the “biological activity of stored inactive peptide after brief treatment with 4M urea” value in [4] is “restored its biological activity”.
